Values quoted from earlier work, collected in patent publication US6849628B2, “Optically active compounds” (The University of Strathclyde, priority 1986, dated 2005).

What was measured:
[1] = target: 5,10-methylene tetrahydrofolate dehydrogenase from E. coli (Escherichia coli, UniProt P24186); settings: Scott and Donaldson 1964
[2] = target: T1, thymidylate synthase from L. casei (Lacticaseibacillus casei, UniProt P00469); settings: Leary et al 1973
T1 sequence (P00469 1-316): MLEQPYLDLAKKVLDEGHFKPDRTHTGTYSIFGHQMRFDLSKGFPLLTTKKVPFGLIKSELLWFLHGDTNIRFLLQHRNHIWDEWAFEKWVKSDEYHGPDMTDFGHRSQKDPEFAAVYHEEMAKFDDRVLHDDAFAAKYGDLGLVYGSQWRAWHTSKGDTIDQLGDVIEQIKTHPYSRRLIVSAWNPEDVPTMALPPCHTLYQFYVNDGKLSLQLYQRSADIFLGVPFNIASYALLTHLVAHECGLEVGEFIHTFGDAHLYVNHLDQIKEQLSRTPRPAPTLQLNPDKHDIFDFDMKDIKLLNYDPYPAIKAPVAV

[3] = target: T2, glycinamide ribonucleotide (GAR) formyl-transferase from chicken liver (Gallus gallus, UniProt P21872); settings: Smith, Benkovic and Benkovic 1981
T2 construct: host or cells: chicken liver
T2 sequence (P21872 1-1003): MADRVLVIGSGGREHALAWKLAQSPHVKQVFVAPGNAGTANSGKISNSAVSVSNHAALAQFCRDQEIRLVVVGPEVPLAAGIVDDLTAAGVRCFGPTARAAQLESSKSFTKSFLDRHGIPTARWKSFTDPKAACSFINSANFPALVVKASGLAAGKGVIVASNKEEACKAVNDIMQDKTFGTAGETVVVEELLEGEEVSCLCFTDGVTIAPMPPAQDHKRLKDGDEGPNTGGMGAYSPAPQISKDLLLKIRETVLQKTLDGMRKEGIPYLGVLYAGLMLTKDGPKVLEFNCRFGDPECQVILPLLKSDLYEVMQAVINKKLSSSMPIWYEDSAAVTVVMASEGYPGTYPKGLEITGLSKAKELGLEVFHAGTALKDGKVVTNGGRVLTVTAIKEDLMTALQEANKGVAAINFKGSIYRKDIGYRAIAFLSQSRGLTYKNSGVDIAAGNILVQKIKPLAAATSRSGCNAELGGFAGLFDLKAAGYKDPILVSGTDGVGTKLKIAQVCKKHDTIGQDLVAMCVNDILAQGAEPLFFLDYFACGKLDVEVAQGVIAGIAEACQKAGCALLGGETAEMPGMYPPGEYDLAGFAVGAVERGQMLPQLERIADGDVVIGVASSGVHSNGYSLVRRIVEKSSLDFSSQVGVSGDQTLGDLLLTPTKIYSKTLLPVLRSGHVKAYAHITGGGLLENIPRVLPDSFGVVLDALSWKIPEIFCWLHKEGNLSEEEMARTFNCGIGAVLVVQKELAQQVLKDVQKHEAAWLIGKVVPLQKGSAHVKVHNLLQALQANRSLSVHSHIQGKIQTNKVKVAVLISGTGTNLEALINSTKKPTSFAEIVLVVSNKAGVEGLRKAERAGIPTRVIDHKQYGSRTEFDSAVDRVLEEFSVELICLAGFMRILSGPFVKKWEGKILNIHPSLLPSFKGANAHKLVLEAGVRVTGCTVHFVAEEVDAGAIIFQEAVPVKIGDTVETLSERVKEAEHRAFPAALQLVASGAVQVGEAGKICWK

one-carbon metabolism = settings: Montgomery et al 1981; only the (6S) diastereoisomer is effective

## Nc1nc2c(c(=O)[nH]1)N1CN(c3ccc(C(=O)N[C@@H](CCC(=O)O)C(=O)O)cc3)CC1CN2 (single isomer, unassigned) [non-natural diastereoisomer of 5,10-methylene tetrahydrofolate, 5,10-methylene tetrahydrofolate]
[1]
  inhibition of 5,10-methylene tetrahydrofolate dehydrogenase: inhibited
[2]
  inhibition of thymidylate synthase: inhibited

## Nc1nc2c(c(=O)[nH]1)NC(CN(C=O)c1ccc(C(=O)N[C@@H](CCC(=O)O)C(=O)O)cc1)CN2 (single isomer, unassigned) [non-natural diastereoisomer of 10-formyltetrahydrofolate, 10-formyltetrahydrofolate]
[3]
  inhibition of GAR formyl-transferase: potent competitive inhibitor

## calcium 5-formyl-(6S) tetrahydrofolate [Ib]
one-carbon metabolism
  effectiveness in restoring one-carbon metabolism: effective in restoring one-carbon metabolism
